Measurements reported in patent publication US20250144067A1, “PERSONALIZED STARVATION THERAPY FOR CANCER” (Faeth Therapeutics, Inc., priority 2021, published 2025).

test system: NCI-H292 lung cancer cells; test: FDA drug screening, complete media vs cholesterol-free media without statin (TABLE 1); assay type: cell-based, human; details: Complete minus Cholesterol-free; […]

| Structure (SMILES) | Difference |
| --- | --- |
| O=Cc1ccc(O[C@@H]2O[C@H](CO)[C@@H](O)[C@@H](O)[C@H]2O)cc1 [Helicid] | −0.20 |
| COc1ccc([C@@H]2CC(=O)c3c(O)cc(O[C@@H]4O[C@H](CO[C@@H]5O[C@@H](C)[C@H](O)[C@@H](O)[C@H]5O)[C@@H](O)[C@H](O)[C@H]4O)cc3O2)cc1O [Hesperidin] | −0.08 |
| C[C@@H]1[C@@H](c2ccc(Cl)cc2)SC(=O)N1C(=O)NC1CCCCC1 [Hexythiazox] | −0.16 |
| C[N+]1(C)[C@@H]2CC[C@H]1C[C@@H](OC(=O)C(O)c1ccccc1)C2.[Br-] (stereo partly drawn) [Homatropine (methylbromide)] | −0.22 |

same assay, conditions: Complete minus Cholesterol-free; greater than 0 enhanced anti-cancer activity, about 0 neutral, below 0 antagonist

| Structure (SMILES) | Difference |
| --- | --- |
| CC1(C)O[C@@H]2C[C@H]3[C@@H]4CCC5=CC(=O)CC[C@]5(C)[C@@]4(F)[C@@H](O)C[C@]3(C)[C@]2(C(=O)CCl)O1 [Halcinonide] | −0.18 |
| CCC(=O)O[C@]1(C(=O)CCl)[C@@H](C)C[C@H]2[C@@H]3C[C@H](F)C4=CC(=O)C=C[C@]4(C)[C@@]3(F)[C@@H](O)C[C@@]21C [Halobetasol (propionate)] | −0.18 |
| CCCC(=O)O[C@]1(C(=O)COC(=O)CC)CC[C@H]2[C@@H]3CCC4=CC(=O)CC[C@]4(C)[C@H]3[C@@H](O)C[C@@]21C [Hydrocortisone buteprate] | −0.17 |

same assay, conditions: NCI-H292 cells, FDA drug library screen, cholesterol-free media without statin

| Structure (SMILES) | Cholesterol-free |
| --- | --- |
| CC1(C)O[C@@H]2C[C@H]3[C@@H]4CCC5=CC(=O)CC[C@]5(C)[C@@]4(F)[C@@H](O)C[C@]3(C)[C@]2(C(=O)CCl)O1 [Halcinonide] | 0.895 |
| CCC(=O)O[C@]1(C(=O)CCl)[C@@H](C)C[C@H]2[C@@H]3C[C@H](F)C4=CC(=O)C=C[C@]4(C)[C@@]3(F)[C@@H](O)C[C@@]21C [Halobetasol (propionate)] | 0.7462 |
| COc1ccc([C@@H]2CC(=O)c3c(O)cc(O[C@@H]4O[C@H](CO[C@@H]5O[C@@H](C)[C@H](O)[C@@H](O)[C@H]5O)[C@@H](O)[C@H](O)[C@H]4O)cc3O2)cc1O [Hesperidin] | 1.106 |
| C[C@@H]1[C@@H](c2ccc(Cl)cc2)SC(=O)N1C(=O)NC1CCCCC1 [Hexythiazox] | 1.557 |
| CCCC(=O)O[C@]1(C(=O)COC(=O)CC)CC[C@H]2[C@@H]3CCC4=CC(=O)CC[C@]4(C)[C@H]3[C@@H](O)C[C@@]21C [Hydrocortisone buteprate] | 0.8122 |

same assay, conditions: NCI-H292 cells, FDA drug library screen, complete media

| Structure (SMILES) | Complete |
| --- | --- |
| CC1(C)O[C@@H]2C[C@H]3[C@@H]4CCC5=CC(=O)CC[C@]5(C)[C@@]4(F)[C@@H](O)C[C@]3(C)[C@]2(C(=O)CCl)O1 [Halcinonide] | 0.7117 |
| CCC(=O)O[C@]1(C(=O)CCl)[C@@H](C)C[C@H]2[C@@H]3C[C@H](F)C4=CC(=O)C=C[C@]4(C)[C@@]3(F)[C@@H](O)C[C@@]21C [Halobetasol (propionate)] | 0.5641 |
| COc1ccc([C@@H]2CC(=O)c3c(O)cc(O[C@@H]4O[C@H](CO[C@@H]5O[C@@H](C)[C@H](O)[C@@H](O)[C@H]5O)[C@@H](O)[C@H](O)[C@H]4O)cc3O2)cc1O [Hesperidin] | 1.03 |
| C[C@@H]1[C@@H](c2ccc(Cl)cc2)SC(=O)N1C(=O)NC1CCCCC1 [Hexythiazox] | 1.396 |
| CCCC(=O)O[C@]1(C(=O)COC(=O)CC)CC[C@H]2[C@@H]3CCC4=CC(=O)CC[C@]4(C)[C@H]3[C@@H](O)C[C@@]21C [Hydrocortisone buteprate] | 0.6382 |

same assay, conditions: NCI-H292 cells, cholesterol-free media without statin

| Structure (SMILES) | Cholesterol-free |
| --- | --- |
| O=Cc1ccc(O[C@@H]2O[C@H](CO)[C@@H](O)[C@@H](O)[C@H]2O)cc1 [Helicid] | 1.202 |
| C[N+]1(C)[C@@H]2CC[C@H]1C[C@@H](OC(=O)C(O)c1ccccc1)C2.[Br-] (stereo partly drawn) [Homatropine (methylbromide)] | 1.269 |

same assay, conditions: NCI-H292 cells, complete media

| Structure (SMILES) | Complete |
| --- | --- |
| O=Cc1ccc(O[C@@H]2O[C@H](CO)[C@@H](O)[C@@H](O)[C@H]2O)cc1 [Helicid] | 1.003 |
| C[N+]1(C)[C@@H]2CC[C@H]1C[C@@H](OC(=O)C(O)c1ccccc1)C2.[Br-] (stereo partly drawn) [Homatropine (methylbromide)] | 1.05 |

test system: NCI-H292 lung cancer cells; test: FDA drug screening, complete media vs cholesterol-free media with simvastatin (TABLE 2); assay type: cell-based, human; details: NCI-H292 cells, FDA drug library screen, cholesterol-free media with simvastatin 0.04 μM

| Structure (SMILES) | Cholesterol-free media + simvastatin (0.04 μM) |
| --- | --- |
| COc1ccc([C@@H]2CC(=O)c3c(O)cc(O[C@@H]4O[C@H](CO[C@@H]5O[C@@H](C)[C@H](O)[C@@H](O)[C@H]5O)[C@@H](O)[C@H](O)[C@H]4O)cc3O2)cc1O [Hesperidin] | 1.822 |

same assay, conditions: NCI-H292 cells, FDA drug library screen, complete media

| Structure (SMILES) | Complete Media |
| --- | --- |
| COc1ccc([C@@H]2CC(=O)c3c(O)cc(O[C@@H]4O[C@H](CO[C@@H]5O[C@@H](C)[C@H](O)[C@@H](O)[C@H]5O)[C@@H](O)[C@H](O)[C@H]4O)cc3O2)cc1O [Hesperidin] | 1.671 |

same assay, conditions: NCI-H292 cells, FDA library drug in cholesterol-free media with simvastatin 0.04 μM

| Structure (SMILES) | Cholesterol-free media + simvastatin (0.04 μM) |
| --- | --- |
| C[N+]1(C)[C@@H]2CC[C@H]1C[C@@H](OC(=O)C(O)c1ccccc1)C2.[Br-] (stereo partly drawn) [Homatropine (methylbromide)] | 1.302 |

same assay, conditions: NCI-H292 cells, FDA library drug in complete media

| Structure (SMILES) | Complete Media |
| --- | --- |
| C[N+]1(C)[C@@H]2CC[C@H]1C[C@@H](OC(=O)C(O)c1ccccc1)C2.[Br-] (stereo partly drawn) [Homatropine (methylbromide)] | 0.9164 |

same assay, conditions: NCI-H292 cells, cholesterol-free media with simvastatin 0.04 μM; FDA drug library screen (TABLE 2)

| Structure (SMILES) | Cholesterol-free media + simvastatin (0.04 μM) |
| --- | --- |
| CCC(=O)O[C@]1(C(=O)CCl)[C@@H](C)C[C@H]2[C@@H]3C[C@H](F)C4=CC(=O)C=C[C@]4(C)[C@@]3(F)[C@@H](O)C[C@@]21C [Halobetasol (propionate)] | 0.5775 |

same assay, conditions: NCI-H292 cells, cholesterol-free media with simvastatin 0.04 μM; […]

| Structure (SMILES) | Cholesterol-free media + simvastatin (0.04 μM) |
| --- | --- |
| C[C@@H]1[C@@H](c2ccc(Cl)cc2)SC(=O)N1C(=O)NC1CCCCC1 [Hexythiazox] | 0.8643 |

same assay, conditions: NCI-H292 cells, cholesterol-free media with simvastatin 0.04 μM; cell growth value in FDA drug screen

| Structure (SMILES) | Cholesterol-free media + simvastatin (0.04 μM) |
| --- | --- |
| CC1(C)O[C@@H]2C[C@H]3[C@@H]4CCC5=CC(=O)CC[C@]5(C)[C@@]4(F)[C@@H](O)C[C@]3(C)[C@]2(C(=O)CCl)O1 [Halcinonide] | 0.5751 |
| CCCC(=O)O[C@]1(C(=O)COC(=O)CC)CC[C@H]2[C@@H]3CCC4=CC(=O)CC[C@]4(C)[C@H]3[C@@H](O)C[C@@]21C [Hydrocortisone buteprate] | 0.6107 |

same assay, conditions: NCI-H292 cells, complete media; FDA drug library screen (TABLE 2)

| Structure (SMILES) | Complete Media |
| --- | --- |
| CCC(=O)O[C@]1(C(=O)CCl)[C@@H](C)C[C@H]2[C@@H]3C[C@H](F)C4=CC(=O)C=C[C@]4(C)[C@@]3(F)[C@@H](O)C[C@@]21C [Halobetasol (propionate)] | 0.585 |

same assay, conditions: NCI-H292 cells, complete media; […]

| Structure (SMILES) | Complete Media |
| --- | --- |
| C[C@@H]1[C@@H](c2ccc(Cl)cc2)SC(=O)N1C(=O)NC1CCCCC1 [Hexythiazox] | 0.9913 |

same assay, conditions: NCI-H292 cells, complete media; cell growth value in FDA drug screen

| Structure (SMILES) | Complete Media |
| --- | --- |
| CC1(C)O[C@@H]2C[C@H]3[C@@H]4CCC5=CC(=O)CC[C@]5(C)[C@@]4(F)[C@@H](O)C[C@]3(C)[C@]2(C(=O)CCl)O1 [Halcinonide] | 0.6822 |
| CCCC(=O)O[C@]1(C(=O)COC(=O)CC)CC[C@H]2[C@@H]3CCC4=CC(=O)CC[C@]4(C)[C@H]3[C@@H](O)C[C@@]21C [Hydrocortisone buteprate] | 0.6538 |

same assay, conditions: NCI-H292 cells, drug in cholesterol-free media with simvastatin 0.04 μM

| Structure (SMILES) | Cholesterol-free media + simvastatin (0.04 μM) |
| --- | --- |
| O=Cc1ccc(O[C@@H]2O[C@H](CO)[C@@H](O)[C@@H](O)[C@H]2O)cc1 [Helicid] | 1.093 |

same assay, conditions: NCI-H292 cells, drug in complete media

| Structure (SMILES) | Complete Media |
| --- | --- |
| O=Cc1ccc(O[C@@H]2O[C@H](CO)[C@@H](O)[C@@H](O)[C@H]2O)cc1 [Helicid] | 0.9239 |

same assay, conditions: complete media minus cholesterol-free media + simvastatin (0.04 μM); >0 enhanced anti-cancer activity, about 0 neutral, <0 antagonist

| Structure (SMILES) | Difference |
| --- | --- |
| CCC(=O)O[C@]1(C(=O)CCl)[C@@H](C)C[C@H]2[C@@H]3C[C@H](F)C4=CC(=O)C=C[C@]4(C)[C@@]3(F)[C@@H](O)C[C@@]21C [Halobetasol (propionate)] | 0.01 |

same assay, conditions: complete media minus cholesterol-free media + simvastatin; >0 enhanced anti-cancer activity, about 0 neutral, <0 antagonist

| Structure (SMILES) | Difference |
| --- | --- |
| CC1(C)O[C@@H]2C[C@H]3[C@@H]4CCC5=CC(=O)CC[C@]5(C)[C@@]4(F)[C@@H](O)C[C@]3(C)[C@]2(C(=O)CCl)O1 [Halcinonide] | 0.11 |
| CCCC(=O)O[C@]1(C(=O)COC(=O)CC)CC[C@H]2[C@@H]3CCC4=CC(=O)CC[C@]4(C)[C@H]3[C@@H](O)C[C@@]21C [Hydrocortisone buteprate] | 0.04 |

same assay, conditions: complete media minus cholesterol-free media + simvastatin; […]

| Structure (SMILES) | Difference |
| --- | --- |
| C[C@@H]1[C@@H](c2ccc(Cl)cc2)SC(=O)N1C(=O)NC1CCCCC1 [Hexythiazox] | 0.13 |

same assay, conditions: complete media vs cholesterol-free media + simvastatin (0.04 μM); […]

| Structure (SMILES) | Difference |
| --- | --- |
| O=Cc1ccc(O[C@@H]2O[C@H](CO)[C@@H](O)[C@@H](O)[C@H]2O)cc1 [Helicid] | −0.17 |
| COc1ccc([C@@H]2CC(=O)c3c(O)cc(O[C@@H]4O[C@H](CO[C@@H]5O[C@@H](C)[C@H](O)[C@@H](O)[C@H]5O)[C@@H](O)[C@H](O)[C@H]4O)cc3O2)cc1O [Hesperidin] | −0.15 |
| C[N+]1(C)[C@@H]2CC[C@H]1C[C@@H](OC(=O)C(O)c1ccccc1)C2.[Br-] (stereo partly drawn) [Homatropine (methylbromide)] | −0.39 |
